According to ChEMBL document CHEMBL1155354, “Carbonic anhydrase inhibitors. Inhibition of the Rv1284 and Rv3273 beta-carbonic anhydrases from Mycobacterium tuberculosis with diazenylbenzenesulfonamides” (Bioorg Med Chem Lett, 2009):

How the values were obtained:
[1] = target: T1, Beta-carbonic anhydrase 1 (Mycobacterium tuberculosis, UniProt P9WPJ7)
T1 sequence (P9WPJ7 whole entry): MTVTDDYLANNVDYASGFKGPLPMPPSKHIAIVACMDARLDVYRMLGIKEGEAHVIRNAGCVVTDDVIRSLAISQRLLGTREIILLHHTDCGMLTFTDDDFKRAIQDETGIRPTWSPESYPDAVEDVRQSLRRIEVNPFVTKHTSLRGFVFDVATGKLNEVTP

[2] = target: T2, PROBABLE TRANSMEMBRANE CARBONIC ANHYDRASE (CARBONATE DEHYDRATASE) (CARBONIC DEHYDRATASE) (Mycobacterium tuberculosis, UniProt P96878)
T2 sequence (P96878 whole entry): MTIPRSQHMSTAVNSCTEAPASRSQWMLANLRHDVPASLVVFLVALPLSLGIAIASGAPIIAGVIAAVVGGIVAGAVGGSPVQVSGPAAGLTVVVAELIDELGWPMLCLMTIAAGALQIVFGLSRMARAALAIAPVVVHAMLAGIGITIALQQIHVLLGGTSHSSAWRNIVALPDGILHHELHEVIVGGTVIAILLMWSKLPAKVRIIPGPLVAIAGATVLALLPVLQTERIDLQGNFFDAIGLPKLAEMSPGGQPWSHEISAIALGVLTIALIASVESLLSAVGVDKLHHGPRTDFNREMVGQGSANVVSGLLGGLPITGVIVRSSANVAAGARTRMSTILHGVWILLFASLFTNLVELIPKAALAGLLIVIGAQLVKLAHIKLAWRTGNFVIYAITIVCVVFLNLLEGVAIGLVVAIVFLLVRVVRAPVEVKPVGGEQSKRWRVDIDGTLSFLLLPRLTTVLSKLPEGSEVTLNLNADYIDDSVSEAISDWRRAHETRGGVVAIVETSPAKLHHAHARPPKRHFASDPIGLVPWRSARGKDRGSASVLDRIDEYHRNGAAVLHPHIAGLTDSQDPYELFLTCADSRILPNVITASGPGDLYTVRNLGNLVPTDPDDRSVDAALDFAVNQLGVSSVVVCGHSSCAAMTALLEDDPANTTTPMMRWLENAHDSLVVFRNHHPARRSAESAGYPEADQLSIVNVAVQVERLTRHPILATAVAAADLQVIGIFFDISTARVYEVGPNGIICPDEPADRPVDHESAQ
Description: Inhibition of Mycobacterium tuberculosis recombinant carbonic anhydrase Rv3273 by stopped flow CO2 hydration assay

Carbonic anhydrase 2 = Carbonic anhydrase 2 (Homo sapiens, UniProt P00918)
Description: Inhibition of human cloned full length carbonic anhydrase 2 by stopped flow CO2 hydration assay

Nc1ccc(/N=N/c2ccc(S(N)(=O)=O)cc2)cc1
Ki [1]: 7.2 µM
Ki [2]: 8.78 µM

Nc1ccc(S(=O)(=O)NCc2ccc(S(N)(=O)=O)cc2)cc1
Ki [2]: 2.21 µM

NS(=O)(=O)c1ccc(/N=N/c2ccc(NCS(=O)(=O)O)cc2)cc1
Ki [1]: 6.78 µM
Ki [2]: 8.9 µM

CN(C)c1ccc(/N=N/c2ccc(S(N)(=O)=O)cc2)cc1
Ki (Carbonic anhydrase 2): 0.638 µM
Ki [1]: 6.86 µM
Ki [2]: 30.7 µM

NS(=O)(=O)c1ccc(/N=N/c2ccc(O)cc2)cc1
Ki [1]: 9.27 µM
Ki [2]: 12.4 µM

CN(CS(=O)(=O)O)c1ccc(/N=N/c2cccc(S(N)(=O)=O)c2)cc1
Ki [1]: 63 µM
Ki [2]: 7.4 µM

CN(CS(=O)(=O)O)c1ccc(/N=N/c2ccc(S(N)(=O)=O)cc2)cc1
Ki [1]: 8.71 µM
Ki [2]: 9.03 µM

NS(=O)(=O)c1cccc(/N=N/c2ccc(NCS(=O)(=O)O)cc2)c1
Ki [1]: 7.51 µM
Ki [2]: 9.45 µM

Nc1ccc(/N=N/c2cccc(S(N)(=O)=O)c2)cc1
Ki [1]: 7 µM
Ki [2]: 8.68 µM

CNc1ccc(/N=N/c2ccc(S(N)(=O)=O)cc2)cc1
Ki (Carbonic anhydrase 2): 0.093 µM
Ki [1]: 7.69 µM
Ki [2]: 9.18 µM

NS(=O)(=O)c1cccc(/N=N/c2ccc(O)cc2)c1
Ki (Carbonic anhydrase 2): 0.106 µM
Ki [1]: 8.97 µM
Ki [2]: 9.23 µM

CN(C)c1ccc(/N=N/c2cccc(S(N)(=O)=O)c2)cc1
Ki [1]: 7.54 µM
Ki [2]: 9.36 µM

Nc1ccc(S(=O)(=O)NCCc2ccc(S(N)(=O)=O)cc2)cc1
Ki [2]: 0.17 µM

CCN[C@H]1CN(CCCOC)S(=O)(=O)c2sc(S(N)(=O)=O)cc21 [BRINZOLAMIDE]
Ki [2]: 0.201 µM

NCc1ccc(S(N)(=O)=O)cc1 [MAFENIDE]
Ki [2]: 7.33 µM

CC(=O)Nc1cc2c(O)c(/N=N/c3ccc(S(N)(=O)=O)cc3)c(S(=O)(=O)O)cc2cc1S(=O)(=O)O [PRONTOCIL]
Ki [1]: 0.126 µM
Ki [2]: 0.148 µM

O=S(=O)(O)CNc1ccccc1 [SODIUM PHENYLAMINOMETHANESULFONATE]
Ki [1]: 8.67 µM
Ki [2]: 8.9 µM

CN(CS(=O)(=O)O)c1ccccc1 [SODIUM(METHYL(PHENYL)AMINO)METHANESULFONATE]
Ki [1]: 7.86 µM
Ki [2]: 9.11 µM
